Source: ChEMBL document CHEMBL4837192, “The Bisindole Alkaloids Angustilongines M and A from Alstonia penangiana Induce Mitochondrial Apoptosis and G0/G1 Cell Cycle Arrest in HT-29 Cells through Promotion of Tubulin Polymerization” (J Nat Prod, 2021)
Calls of active or inactive are those of the source. The rule behind the calls is not given here.

How the values were obtained:
KB [1] = assay: Cytotoxicity against human vincristine-sensitive KB cells assessed as cell growth inhibition measured after 72 hrs by MTT assay; type: functional, cell-based
KB [2] = assay: Cytotoxicity against human vincristine-resistant KB cells assessed as cell growth inhibition measured after 72 hrs by MTT assay; type: functional, cell-based
HT-29 [3] = assay: Cytotoxicity against human HT-29 cells assessed as cell growth inhibition measured after 72 hrs by MTT assay; type: functional, cell-based; details: HT-29, 72 h
A549 = assay: Cytotoxicity against human A549 cells assessed as cell growth inhibition measured after 72 hrs by MTT assay; type: functional, cell-based; details: A549, 72 h
HT-29 [4] = assay: Induction of apoptosis in human HT-29 cells assessed as late apoptotic cells at 2.7 uM measured after 72 hrs by FITC-annexin V/propidium iodide- double staining based flow cytometry analysis (Rvb= 3.0%); type: functional
HT-29 [5] = assay: Induction of mitochondrial membrane potential loss in human HT-29 cells assessed as apoptotic cells at 2.7 uM measured after 48 hrs by JC-1 staining based flow cytometry analysis (Rvb= 8.6%); type: functional
HT-29 [6] = assay: Induction of mitochondrial membrane potential loss in human HT-29 cells assessed as healthy cells at 2.7 uM measured after 72 hrs by JC-1 staining based flow cytometry analysis (Rvb= 91.4%); type: functional
HT-29 [7] = assay: Induction of apoptosis in human HT-29 cells assessed as early apoptotic cells at 2.7 uM measured after 48 hrs by FITC-annexin V/propidium iodide- double staining based flow cytometry analysis (Rvb= 12.8%); type: functional
HT-29 [8] = assay: Antiproliferative activity in human HT-29 cells cultured as 3D spheroids assessed as gradual disaggregation of peripheral cells at IC50 measured after 48 hrs; type: functional, cell-based
HT-29 [9] = assay: Induction of cell cycle arrest in human HT-29 cells assessed as accumulation of cells at S phase at 2.7 uM measured after 48 hrs by propidium iodide staining based flow cytometry analysis (Rvb= 35.52%); type: functional
HT-29 [10] = assay: Anticlonogenic activity against human HT-29 cells assessed as inhibition of colony formation measured after 6 days by methylene blue staining based assay; type: functional, cell-based; details: dose 1.35-2.7 µM, time 6.0 day
MCF7 = assay: Cytotoxicity against human MCF7 cells assessed as cell growth inhibition measured after 72 hrs by MTT assay; type: functional, cell-based; details: MCF7, 72 h
HT-29 [11] = assay: Induction of apoptosis in human HT-29 cells assessed as viable cells at 2.7 uM measured after 48 hrs by FITC-annexin V/propidium iodide- double staining based flow cytometry analysis (Rvb= 83.8%); type: functional; details: read-out: Activity
PC-3 = assay: Cytotoxicity against human PC-3 cells assessed as cell growth inhibition measured after 72 hrs by MTT assay; type: functional, cell-based; details: PC-3, 72 h
HT-29 [12] = assay: Induction of mitochondrial membrane potential loss in human HT-29 cells assessed as healthy cells at 2.7 uM measured after 48 hrs by JC-1 staining based flow cytometry analysis (Rvb= 91.4%); type: functional
HT-29 [13] = assay: Cytotoxicity against human HT-29 cells assessed as cell growth inhibition measured after 48 hrs by MTT assay; type: functional, cell-based; details: HT-29, 48 h
CCD-18Co [14] = assay: Cytotoxicity against human CCD-18Co cells assessed as cell growth inhibition measured after 48 hrs by MTT assay; type: cell-based
HT-29 [15] = assay: Induction of apoptosis in human HT-29 cells assessed as dead cells at 2.7 uM measured after 48 hrs by FITC-annexin V/propidium iodide- double staining based flow cytometry analysis (Rvb= 0.4%); type: functional
HT-29 [16] = assay: Induction of cell cycle arrest in human HT-29 cells assessed as accumulation of cells at G2 phase at 2.7 uM measured after 24 hrs by propidium iodide staining based flow cytometry analysis (Rvb= 9.09%); type: functional
HT-29 [17] = assay: Induction of cell cycle arrest in human HT-29 cells assessed as accumulation of cells at G1 phase at 2.7 uM measured after 24 hrs by propidium iodide staining based flow cytometry analysis (Rvb= 55.39%); type: functional
HT-29 [18] = assay: Induction of apoptosis in human HT-29 cells assessed as viable cells at 2.7 uM measured after 72 hrs by FITC-annexin V/propidium iodide- double staining based flow cytometry analysis (Rvb= 83.8%); type: functional; details: read-out: Activity
HT-29 [19] = assay: Antiproliferative activity against human HT-29 cells cultured as 3D spheroids assessed as inhibition of spheroid formation measured after 48 hrs by MTT assay; type: functional, cell-based; details: HT-29, 48 h
HT-29 [20] = assay: Induction of apoptosis in human HT-29 cells assessed as early apoptotic cells at 2.7 uM measured after 72 hrs by FITC-annexin V/propidium iodide- double staining based flow cytometry analysis (Rvb= 12.8%); type: functional
HT-29 [21] = assay: Induction of cell cycle arrest in human HT-29 cells assessed as accumulation of cells at S phase at 2.7 uM measured after 72 hrs by propidium iodide staining based flow cytometry analysis (Rvb= 35.52%); type: functional
CCD-18Co [22] = assay: Cytotoxicity against human CCD-18Co cells assessed as cell growth inhibition measured after 72 hrs by MTT assay; type: cell-based
HT-29 [23] = assay: Induction of apoptosis in human HT-29 cells assessed as dead cells at 2.7 uM measured after 72 hrs by FITC-annexin V/propidium iodide- double staining based flow cytometry analysis (Rvb= 0.4%); type: functional
HT-29 [24] = assay: Induction of cell cycle arrest in human HT-29 cells assessed as accumulation of cells at G2 phase at 2.7 uM measured after 72 hrs by propidium iodide staining based flow cytometry analysis (Rvb= 9.09%); type: functional
HT-29 [25] = assay: Induction of apoptosis in human HT-29 cells assessed as late apoptotic cells at 2.7 uM measured after 48 hrs by FITC-annexin V/propidium iodide- double staining based flow cytometry analysis (Rvb= 3.0%); type: functional
HT-29 [26] = assay: Induction of cell cycle arrest in human HT-29 cells assessed as accumulation of cells at G1 phase at 2.7 uM measured after 72 hrs by propidium iodide staining based flow cytometry analysis (Rvb= 55.39%); type: functional
MDA-MB-231 = assay: Cytotoxicity against human MDA-MB-231 cells assessed as cell growth inhibition measured after 72 hrs by MTT assay; type: functional, cell-based; details: MDA-MB-231, 72 h
HCT-116 = assay: Cytotoxicity against human HCT-116 cells assessed as cell growth inhibition measured after 72 hrs by MTT assay; type: functional, cell-based; details: HCT-116, 72 h
HT-29 [27] = assay: Induction of apoptosis in human HT-29 cells assessed as early apoptotic cells at 2.7 uM measured after 24 hrs by FITC-annexin V/propidium iodide- double staining based flow cytometry analysis (Rvb= 12.8%); type: functional
HT-29 [28] = assay: Induction of apoptosis in human HT-29 cells assessed as viable cells at 2.7 uM measured after 24 hrs by FITC-annexin V/propidium iodide- double staining based flow cytometry analysis (Rvb= 83.8%); type: functional; details: read-out: Activity
HT-29 [29] = assay: Induction of apoptosis in human HT-29 cells assessed as dead cells at 2.7 uM measured after 24 hrs by FITC-annexin V/propidium iodide- double staining based flow cytometry analysis (Rvb= 0.4%); type: functional
HT-29 [30] = assay: Induction of apoptosis in human HT-29 cells assessed as activation of caspase-3 at 2.7 uM measured after 48 hrs by flow cytometry analysis (Rvb= 2.2%); type: functional
HT-29 [31] = assay: Induction of mitochondrial membrane potential loss in human HT-29 cells assessed as healthy cells at 2.7 uM measured after 24 hrs by JC-1 staining based flow cytometry analysis (Rvb= 91.4%); type: functional
HT-29 [32] = assay: Induction of apoptosis in human HT-29 cells assessed as activation of caspase-3 at 2.7 uM measured after 72 hrs by flow cytometry analysis (Rvb= 2.2%); type: functional
HT-29 [33] = assay: Induction of mitochondrial membrane potential loss in human HT-29 cells assessed as apoptotic cells at 2.7 uM measured after 24 hrs by JC-1 staining based flow cytometry analysis (Rvb= 8.6%); type: functional
HT-29 [34] = assay: Induction of cell cycle arrest in human HT-29 cells assessed as accumulation of cells at G2 phase at 2.7 uM measured after 48 hrs by propidium iodide staining based flow cytometry analysis (Rvb= 9.09%); type: functional
HT-29 [35] = assay: Antiproliferative activity in human HT-29 cells cultured as 3D spheroids assessed as reduction in 3D structure of spheroid morphology at IC50 measured after 48 hrs; type: functional, cell-based
HT-29 [36] = assay: Induction of cell cycle arrest in human HT-29 cells assessed as accumulation of cells at G1 phase at 2.7 uM measured after 48 hrs by propidium iodide staining based flow cytometry analysis (Rvb= 55.39%); type: functional
[37] = Selectivity index, ratio of IC50 for human CCD-18Co cells to IC50 for human HT-29 cells assessed as cell growth inhibition measured after 48 hrs by MTT assay
HT-29 [38] = assay: Induction of apoptosis in human HT-29 cells assessed as activation of caspase-3 at 2.7 uM measured after 24 hrs by flow cytometry analysis (Rvb= 2.2%); type: functional
HT-29 [39] = assay: Induction of mitochondrial membrane potential loss in human HT-29 cells assessed as apoptotic cells at 2.7 uM measured after 72 hrs by JC-1 staining based flow cytometry analysis (Rvb= 8.6%); type: functional
HT-29 [40] = assay: Induction of apoptosis in human HT-29 cells assessed as late apoptotic cells at 2.7 uM measured after 24 hrs by FITC-annexin V/propidium iodide- double staining based flow cytometry analysis (Rvb= 3.0%); type: functional
HT-29 [41] = assay: Induction of cell cycle arrest in human HT-29 cells assessed as accumulation of cells at S phase at 2.7 uM measured after 24 hrs by propidium iodide staining based flow cytometry analysis (Rvb= 35.52%); type: functional
Tubulin (Homo sapiens) = Tubulin (Homo sapiens) (UniProt P68371+Q9H4B7+P0DPH7+P68366+Q13509+Q71U36+P04350+Q3ZCM7+P07437+P68363+Q9BQE3+Q6PEY2+Q13885+Q9BVA1+Q9BUF5); assay: Induction of tubulin polymerization in human HT-29 cells assessed as stabilization of microtubules at 10 uM by spectrophotometric analysis; type: cell-based

With `CC[C@]1(O)C[C@H]2CN(CCc3c([nH]c4ccccc34)[C@@](C(=O)OC)(c3cc4c(cc3OC)N(C=O)[C@H]3[C@@](O)(C(=O)OC)[C@H](OC(C)=O)[C@]5(CC)C=CCN6CC[C@]43[C@@H]65)C2)C1` [VINCRISTINE] the IC50 (KB [1]) was 0.8 nM and the IC50 (KB [2]) was 0.8 µM.
`C/C=C1/CN2[C@H]3C[C@@H]1[C@@H](CO)[C@@H]2Cc1c3n(C)c2ccc3c(c12)[C@H](C)[C@@H]1[C@@H](OC[C@@H]2[C@H]1C[C@H]1c4c(c5ccccc5n4C)C[C@@H]2N1C)O3` showed an IC50 (HT-29 [3]) of 200 nM, an IC50 (A549) of 2100 nM and an Activity (HT-29 [4]) of 41.6%. For the same compound, the Activity (HT-29 [5]) was 36.1%, the Activity (HT-29 [6]) was 36.6% and the Activity (HT-29 [7]) was 32%. The Activity (HT-29 [8]) was “Active”, the Activity (HT-29 [9]) was 21.76% and the Activity (HT-29 [10]) was “Dose-Dependent Effect”. For the same compound, the IC50 (MCF7) was greater than 10 µM, the viability at 2.7 µM (HT-29 [11]) was 60.8% and the IC50 (KB [1]) was 5000 nM. It also gave an IC50 (PC-3) of 6.1 µM, an Activity (HT-29 [12]) of 63.9% and an IC50 (HT-29 [13]) of 2700 nM. For the same compound, the IC50 (CCD-18Co [14]) was 14.1 µM, the Activity (HT-29 [15]) was 0.1% and the Activity (HT-29 [16]) was 14.56%. It also gave an Activity (HT-29 [17]) of 65.56%, a viability at 2.7 µM (HT-29 [18]) of 17.7% and an IC50 (HT-29 [19]) of 3.8 µM. The Activity (HT-29 [20]) was 40.3%, the IC50 (KB [2]) was 7.6 µM and the Activity (HT-29 [21]) was 24.39%. The IC50 (CCD-18Co [22]) was greater than 10 µM, the Activity (HT-29 [23]) was 0.4% and the Activity (HT-29 [24]) was 7.67%. It also gave an Activity (HT-29 [25]) of 7.1%, an Activity (HT-29 [26]) of 67.94% and an IC50 (MDA-MB-231) of 5.9 µM. It also gave an IC50 (HCT-116) of 4.7 µM, an Activity (HT-29 [27]) of 8.7% and a viability at 2.7 µM (HT-29 [28]) of 77.6%. The Activity (HT-29 [29]) was 0.9%, the Activity (HT-29 [30]) was 26% and the Activity (HT-29 [31]) was 90.9%. It also gave an Activity (HT-29 [32]) of 67.8%, an Activity (HT-29 [33]) of 9.1% and an Activity (HT-29 [34]) of 12.12%. For the same compound, the Activity (HT-29 [35]) was “Active”, the Activity (HT-29 [36]) was 66.11% and the “Ratio IC50” value [37] was 5.32. For the same compound, the Activity (HT-29 [38]) was 1.9%, the Activity (HT-29 [39]) was 63.4% and the Activity (HT-29 [40]) was 12.8%. The Activity (HT-29 [41]) was 19.88% and the Activity (Tubulin (Homo sapiens)) was “Active”.
